Assay results from patent US6514965B1, “Substituted 1-benzazepines and derivatives thereof” (Antex Pharma Inc., priority 1999, dated 2003).

Tested on: bacteria
Test: MIC, broth dilution method (antibacterial activity)
Assay type: cell-based
Settings: optical density of organisms with and without test compound, bacterial species not stated
Method: Antibacterial activity can be determined by several standard methods well known by those skilled in the art, including disc diffusions methods, broth dilution minimal inhibitory concentration (MIC) methods, etc., including the detailed method outlined below.
MIC, Broth Dilution Method
Cultures of bacteria are initially brought up from the freezer stocks onto chocolate agar plates by streaking a loop-full, then incubated for 18 hours at 35-37° C. in a 5% CO2 incubator.
Five to 10 colonies are picked from the chocolate agar plate for subculture to Brain-Heart Infusion (BHI) broth or Mueller Hinton broth or BHI containing 4% serum and incubated as described.
Evaluate the optical density of the organisms with and without the test compound. The optical density of the organisms in the presence of an active compound will be less than the optical density of the same organism untreated. The activity of the compounds is described as either negative or the lowest concentration inhibiting growth. The results are depicted in Table III, where +/− represents the least activity and ++++ represents the greatest activity.

Compound | Antibacterial Activity
COc1cc2c(cc1N1CCN(C(=O)OCc3ccccc3)CC1)CCC(C(=O)OC(C)(C)C)C(=O)N2Cc1cccc(F)c1 (racemic) [Example 31, 7-[(4-Benzyloxycarbonyl)piperazin-1-yl]-3(R,S)-tert-butoxycarbonyl-1-(3-fluorobenzyl)-8-methoxy-2,3,4,5-tetrahydro-1H-1-benzazepine-2-one] | ++++
CC(C)(C)[Si](C)(C)Oc1ccc2c(c1)NC(=O)CCC2 [Example 36, 8-(tert-butyldimethylsilyloxy)-2,3,4,5-tetrahydro-1H-1-benzazepine-2-one] | ++++
CCN1C(=O)CCCc2cc(N3CCN(C)CC3)c(OC)cc21 [Example 10] | +/−

Tested on: not given
Test: not given
Settings: not given

melting point | Compound
188 to 189 °C (dec.) | CCN1C(=O)C(C(=O)O)CCc2cc(Br)c(OC)cc21 (racemic) [Example 17, 7-Bromo-3(R,S)-carboxyl-1-ethyl-8-methoxy-2,3,4,5tetrahydro-1H-1-benzazepine-2-one]
71 to 73 °C (dec.) | CCN1C(=O)C(Br)(C(=O)OC)CCc2cc(Br)c(OC)cc21 (racemic) [Example 27, 3,7-Dibromo-1-ethyl-3(R,S)-methoxycarbonyl-8-methoxy-2,3,4,5-tetrahydro-1H-1-benzazepine-2-one]
180 to 182 °C | COc1cc2c(cc1Br)CCCC(=O)N2 [Example 24, 7-Bromo-8-methoxy-2,3,4,5-tetrahydro-1H-1-benzazepine-2-one]
105 to 106 °C | COc1ccc2c(c1)NC(=O)CCC2 [Example 2, 8-Methoxy-2,3,4,5-tetrahydro-1H-1-benzazepine-2-one]
173 to 176 °C (dec.) | CCN1C(=O)C(C(=O)O)CCc2cc(N3CCNCC3)c(OC)cc21.Cl (racemic) [Example 15, 3(R,S)-Carboxyl-1-ethyl-8-methoxy-7-(piperazin-1-yl)-2,3,4,5-tetrahydro-1H-1-benzazepine-2-one Hydrochloride]
133 to 135 °C | CCN1C(=O)CCCc2cc(Br)c(OC)cc21 [Example 9, 7-Bromo-1-ethyl-8-methoxy-2,3,4,5-tetrahydro-1H-1-benzazepine-2-one]
89 to 91 °C | CCOC(=O)C1CCc2ccc(OC)cc2NC1=O (racemic) [Example 3, 3(R,S)-Ethoxycarbonyl-8-methoxy-2,3,4,5-tetrahydro-1H-1-benzazepine-2-one]
120 to 121 °C | CCN1C(=O)C(C(=O)O)CCc2ccc(OC)cc21 (racemic) [Example 5, 3(R,S)-Carboxyl-1-ethyl-8-methoxy-2,3,4,5-tetrahydro-1H-1-benzazepine-2-one]
226 to 227 °C | O=C1CCCc2ccc(O)cc2N1 [Example 33, 8-Hydroxy-2,3,4,5-tetrahydro-1H-1-benzazepine-2-one]

Compound | melting point
COc1cc2c(cc1Br)CCC(C(=O)OC(C)(C)C)C(=O)N2 (racemic) [Example 32, 7-Bromo-3(R,S)-tert-butoxycarbonyl-8-methoxy-2,3,4,5-tetrahydro-1H-1-benzazepine-2-one] | 207 to 208 °C
COc1cc2c(cc1Br)CCC(C(=O)OC(C)(C)C)C(=O)N2Cc1cccc(F)c1 (racemic) [Example 30, 7-Bromo-3(R,S)-tert-butoxycarbonyl-1-(3-fluorobenzyl)-8-methoxy-2,3,4,5-tetrahydro-1H-1-benzazepine-2-one] | 146 to 148 °C
COc1ccc2c(c1)N(C(=O)OC(C)(C)C)C(=O)C(C(=O)OC(C)(C)C)CC2 (racemic) [Example 23, 1-tert-Butoxycarbonyl-3(R,S)-tert-butoxycarbonyl-8-methoxy-2,3,4,5-tetrahydro-1H-1-benzazepine-2-one] | 91 to 92 °C
CCN1C(=O)C(C(=O)OC(C)(C)C)CCc2ccc(OC)cc21 (racemic) [Example 12, 3(R,S)-tert-Butoxycarbonyl-1-ethyl-8-methoxy-2,3,4,5-tetrahydro-1H-1-benzazepine-2-one] | 132 to 133 °C
CCN1C(=O)C(C(=O)OC(C)(C)C)C=Cc2ccc(OC)cc21 (racemic) [Example 16, 3(R,S)-tert-Butoxycarbonyl-1-ethyl-8-methoxy-2,3-dihydro-1H-1-benzazepine-2-one] | 173 to 174 °C
COc1ccc2c(c1)NC(=O)C(C(=O)OC(C)(C)C)CC2 (racemic) [Example 11, 3(R,S)-tert-Butoxycarbonyl-8-methoxy-2,3,4,5-tetrahydro-1H-1-benzazepine-2-one] | 145 to 147 °C
CCN1C(=O)C(C(=O)OC(C)(C)C)CCc2cc(N3CCNCC3)c(OC)cc21 (racemic) [Example 18, 3(R,S)-tert-Butoxycarbonyl-1-ethyl-8-methoxy-7-(piperazin-1-yl)-2,3,4,5-tetrahydro-1H-1-benzazepine-2-one] | 165 °C (dec.)
CCN1C(=O)C(C(=O)OC(C)(C)C)CCc2cc(Br)c(OC)cc21 (racemic) [Example 13, 7-Bromo-3(R,S)-tert-butoxycarbonyl-1-ethyl-8-methoxy-2,3,4,5-tetrahydro-1H-1-benzazepine-2-one] | 131 to 132 °C
